Several values for one entry are separate records, joined by “and”; a condition that tells them apart may be missing. Equal values may be shown once. Inconclusive results and toxic doses are left out.
Test system: BDF1 mice, P388 leukemia ip, median survival T/C
Assay: NCI In Vivo Anticancer Drug Screen. Data for tumor model P388 Leukemia (intraperitoneal) in B6D2F1 (BDF1) mice
Conditions: endpoint: median survival time, higher = longer survival
How it was run: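 Transplantable tumour in mice; compound vs vehicle dosing; survival scored; ratio of treated to control reported.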

[1] = dose: 12.5 mg/kg/injection, schedule: Q01DX009 (ip), vehicle: other
[2] = dose: 25.0 mg/kg/injection, schedule: Q01DX009 (ip), vehicle: other
[3] = dose: 6.25 mg/kg/injection, schedule: Q01DX009 (ip), vehicle: saline with Tween-80
[4] = dose: 12.5 mg/kg/injection, schedule: Q01DX009 (ip), vehicle: saline with Tween-80
[5] = dose: 25.0 mg/kg/injection, schedule: Q01DX009 (ip), vehicle: saline with Tween-80

Cc1ccc(N(OC(=O)c2ccccc2)C(C)(C)C)cc1
T/C (dose: 25.0 mg/kg/injection, schedule: Q04DX002 (ip), vehicle: saline with Tween-80): 93 % of control
T/C (dose: 50.0 mg/kg/injection, schedule: Q04DX002 (ip), vehicle: saline with Tween-80): 109 % of control
T/C (dose: 100.0 mg/kg/injection, schedule: Q04DX002 (ip), vehicle: saline with Tween-80): 111 % of control and 113 % of control

Cc1ccc(S(=O)(=O)N/N=C/c2ccncc2)cc1
T/C [1]: 110 % of control
T/C [2]: 117 % of control
T/C (dose: 50.0 mg/kg/injection, schedule: Q01DX009 (ip), vehicle: other): 119 % of control
T/C (dose: 200.0 mg/kg/injection, schedule: Q01DX009 (ip), vehicle: other): 155 % of control

Cc1cccnc1N1CCNC1=O
T/C (dose: 25.0 mg/kg/injection, schedule: Q04DX003 (ip), vehicle: saline): 90 % of control
T/C (dose: 50.0 mg/kg/injection, schedule: Q04DX003 (ip), vehicle: saline): 90 % of control
T/C (dose: 100.0 mg/kg/injection, schedule: Q04DX003 (ip), vehicle: saline): 100 % of control

Cc1cc(CC(Cl)(C(F)(F)F)C(F)(F)F)cc(CC(Cl)(C(F)(F)F)C(F)(F)F)n1
T/C [3]: 110 % of control
T/C [4]: 105 % of control
T/C (dose: 12.5 mg/kg/injection, schedule: Q04DX003 (ip), vehicle: saline with Tween-80): 90 % of control
T/C [5]: 110 % of control
T/C (dose: 25.0 mg/kg/injection, schedule: Q04DX003 (ip), vehicle: saline with Tween-80): 90 % of control
T/C (dose: 50.0 mg/kg/injection, schedule: Q04DX003 (ip), vehicle: saline with Tween-80): 113 % of control

CC(C)C(C)/C=C\C(C)C1CCC2C3=CCC4CC(=O)CCC4(C)C3CCC21C (stereo unspecified)
T/C [3]: 104 % of control
T/C [4]: 104 % of control
T/C [5]: 108 % of control

O=C(Nc1ccccc1F)Nc1cc(Cl)ccc1Cl
T/C (dose: 50.0 mg/kg/injection, schedule: Q04DX003 (ip), vehicle: saline sonified): 90 % of control
T/C (dose: 100.0 mg/kg/injection, schedule: Q04DX003 (ip), vehicle: saline sonified): 86 % of control
T/C (dose: 200.0 mg/kg/injection, schedule: Q04DX003 (ip), vehicle: saline sonified): 90 % of control

O=C1C=CC(=O)N1CO
T/C (dose: 0.62 mg/kg/injection, schedule: Q04DX003 (ip), vehicle: saline): 100 % of control
T/C (dose: 1.25 mg/kg/injection, schedule: Q01DX009 (ip), vehicle: saline): 109 % of control
T/C (dose: 1.25 mg/kg/injection, schedule: Q04DX003 (ip), vehicle: saline): 95 % of control
T/C (dose: 2.5 mg/kg/injection, schedule: Q01DX009 (ip), vehicle: saline): 118 % of control
T/C (dose: 2.5 mg/kg/injection, schedule: Q04DX003 (ip), vehicle: saline): 90 % of control
T/C (dose: 3.6 mg/kg/injection, schedule: Q04DX003 (ip), vehicle: saline): 100 % of control
T/C (dose: 5.6 mg/kg/injection, schedule: Q04DX003 (ip), vehicle: saline): 104 % of control
T/C (dose: 8.4 mg/kg/injection, schedule: Q04DX003 (ip), vehicle: saline): 104 % of control

CN(C)c1nn2c(-c3ccccc3)nnc2s1
T/C (dose: 100.0 mg/kg/injection, schedule: Q01DX009 (ip), vehicle: saline): 86 % of control
T/C (dose: 200.0 mg/kg/injection, schedule: Q01DX009 (ip), vehicle: saline): 90 % of control
T/C (dose: 400.0 mg/kg/injection, schedule: Q01DX009 (ip), vehicle: saline): 100 % of control

CC1=C(Cl)C(Cl)(Cl)C(=O)C(=O)C1(Cl)Cl
T/C (dose: 6.25 mg/kg/injection, schedule: Q01DX009 (ip), vehicle: other): 100 % of control
T/C [1]: 109 % of control
T/C [2]: 113 % of control
